From the CombiSolv-Exp solvation set (Vermeire and Green 2021) come the findings set out here.

The series can be described thus: solvent given as SMILES.

Structures are written as SMILES.

Consider `CCOCC`, for which the “solvation free energy, 298 K” value is -3.51 kcal/mol (in C1CCOC1); -2.74 kcal/mol (in C=CCCCCCCCCCCCCCC); -2.81 kcal/mol (in CC(=O)N(C)C); -3.25 kcal/mol (in CC(C)=O); -3.05 kcal/mol (in CCCCCCCC); -2.79 kcal/mol (in CCCCCCCCCCCCCCCC). The “solvation free energy, 298 K” value is -2.93 kcal/mol (in CCCCCCCCCCO); -2.99 kcal/mol (in CCCCCCCCO); -3.12 kcal/mol (in CCCCCO); -3.4 kcal/mol (in CCCCCl); -2.88 kcal/mol (in CCCCN(C=O)CCCC); -3.1 kcal/mol (in CCCCO). Moreover, the “solvation free energy, 298 K” value reads like this: (in CCCCOCCCC) -3.23 kcal/mol; (in CCN1CCCC1=O) -2.77 kcal/mol; (in CCN(CC)C(C)=O) -2.95 kcal/mol; (in CCNC(C)=O) -2.82 kcal/mol; (in CCNC=O) -2.78 kcal/mol; (in CCO) -3.26 kcal/mol. The “solvation free energy, 298 K” value (in CCOC(C)(C)C) was -3.23 kcal/mol; the “solvation free energy, 298 K” value (in CN1CCCC1=O) is -2.77 kcal/mol; the “solvation free energy, 298 K” value (in CN1CCCCC1=O) was -2.77 kcal/mol; the “solvation free energy, 298 K” value (in CN(C)C=O) was -2.81 kcal/mol; the “solvation free energy, 298 K” value (in CNC(C)=O) is -2.77 kcal/mol; the “solvation free energy, 298 K” value (in CNC=O) was -2.66 kcal/mol. The “solvation free energy, 298 K” value is -3.26 kcal/mol (in CO); -2.2 kcal/mol (in CS(C)=O); -3.29 kcal/mol (in Cc1cccc(C)c1); -3.52 kcal/mol (in ClC(Cl)(Cl)Cl); -3.44 kcal/mol (in ClCCCl); -3.92 kcal/mol (in ClCCl). Further, the “solvation free energy, 298 K” value was -1.93 kcal/mol (in NC=O), -1.74 kcal/mol (in O) and -1.96 kcal/mol (in [2H]O[2H]).
`C=C1CCC23CC1C(C)(C)C2CCC3C` (stereo not drawn): the “solvation free energy, 298 K” value (in O) is 0.8 kcal/mol.
Still for that read-out and setting: as for `c1cc[nH]c1`, the figure is -4.78 kcal/mol.
For `CCC(C)C(=O)OC1CC(C)C=C2C=CC(C)C(CCC3CC(O)CC(=O)O3)C21` (stereo not drawn), the “solvation free energy, 298 K” value was -24.9 kcal/mol (in CC(=O)OC(C)C); -24.8 kcal/mol (in CC(=O)OCC(C)C); -25.7 kcal/mol (in CC(C)=O); -25.6 kcal/mol (in CCC(C)=O); -24.9 kcal/mol (in CCC(C)OC(C)=O); -24.6 kcal/mol (in CCCCCCCCO). Besides, the “solvation free energy, 298 K” value (in CCCCCCO) is -24.8 kcal/mol; the “solvation free energy, 298 K” value (in CCCCCO) was -24.9 kcal/mol; the “solvation free energy, 298 K” value (in CCCCO) was -25.2 kcal/mol; the “solvation free energy, 298 K” value (in CCCCOC(C)=O) was -24.9 kcal/mol; the “solvation free energy, 298 K” value (in CCCO) is -25.2 kcal/mol; the “solvation free energy, 298 K” value (in CCCOC(C)=O) was -25.1 kcal/mol. The “solvation free energy, 298 K” value reads like this: (in CCO) -25.1 kcal/mol; (in CCOC(C)=O) -25.1 kcal/mol; (in CO) -25.2 kcal/mol; (in COC(C)=O) -25.1 kcal/mol.
Regarding `c1ccc2c(c1)OCCOCCOc1ccccc1OCCOCCO2`, the “solvation free energy, 298 K” value runs as follows: (in Cc1cccc(C)c1) -21.7 kcal/mol; (in O) -18.2 kcal/mol.
For the compound `C=CCCC(C)C`, the “solvation free energy, 298 K” value (in C=CCCCCCCCCCCCCCC) is -3.87 kcal/mol and the “solvation free energy, 298 K” value (in O) came to 1.77 kcal/mol.
As to `Cc1ccc(CN)cc1`, the “solvation free energy, 298 K” value (in O) is -6.07 kcal/mol.
The same measure, in the same setting: the figure for `CCCCCCCCC=CCCCCCCCC(=O)OCC` is -8.25 kcal/mol.
As to `CCCCCCCCCC(=O)c1c(C)[nH]n(-c2ccccc2)c1=O`, the “solvation free energy, 298 K” value (in O) is -8.46 kcal/mol.
In the case of `CC1=CCC2C(C)=CCC(C(C)C)C2C1` (stereo not drawn), the “solvation free energy, 298 K” value (in O) was -0.38 kcal/mol.
With `CCCSCCC`, the “solvation free energy, 298 K” value (in O) is -1.28 kcal/mol.
With `C1CCNC1`, the “solvation free energy, 298 K” value is -4.19 kcal/mol (in C1CCCCC1), -5.55 kcal/mol (in CCCCCCCCO) and -5.48 kcal/mol (in O).
Take `FC(F)C(F)(F)F`: the “solvation free energy, 298 K” value is -0.79 kcal/mol (in CCCCCCCC(=O)OCC(COC(=O)CCCCCCC)OC(=O)CCCCCCC); -0.39 kcal/mol (in CCCCCCCCC); -0.57 kcal/mol (in CCCCCCCCO); -1.54 kcal/mol (in CN(C)C=O); 1.45 kcal/mol (in O).
As to `C=CC(C)(CCC=C(C)C)OC(=O)CC` (stereo not drawn), the “solvation free energy, 298 K” value (in O) was -3.26 kcal/mol.
Turning to `Clc1cc(Cl)c(-c2c(Cl)cc(Cl)cc2Cl)c(Cl)c1`, the “solvation free energy, 298 K” value by setting is: (in CCCCCCCCO) -12.5 kcal/mol; (in O) -1.96 kcal/mol.
Take `CI`: the “solvation free energy, 298 K” value by setting is: (in Brc1cccc2ccccc12) -3.3 kcal/mol; (in CC(=O)N(C)C) -3.63 kcal/mol; (in CC(=O)OCc1ccccc1) -3.34 kcal/mol; (in CC(C)=O) -3.56 kcal/mol; (in CC(C)CC(C)(C)C) -2.94 kcal/mol; (in CCC(C)=O) -3.48 kcal/mol. The “solvation free energy, 298 K” value is -3.03 kcal/mol (in CCCCCCC); -2.99 kcal/mol (in CCCCCCCC); -2.95 kcal/mol (in CCCCCCCCO); -3.44 kcal/mol (in CCCCCl); -3.04 kcal/mol (in CCCCO); -2.99 kcal/mol (in CCO). The “solvation free energy, 298 K” value is -3.46 kcal/mol (in CCOC(C)=O); -3.77 kcal/mol (in CN1CCCC1=O); -3.49 kcal/mol (in CN(C)C=O); -3.21 kcal/mol (in CO); -3.47 kcal/mol (in Cc1ccc(C)cc1); -3.49 kcal/mol (in ClC(Cl)(Cl)Cl). For the same compound, the “solvation free energy, 298 K” value is, setting by setting: (in ClC(Cl)Cl) -3.78 kcal/mol; (in ClCCCl) -3.62 kcal/mol; (in ClCCl) -3.83 kcal/mol; (in N#Cc1ccccc1) -3.41 kcal/mol; (in O) -0.89 kcal/mol; (in O=C1CCCCC1) -3.58 kcal/mol. Further, for the setting “in c1ccc2ncccc2c1”, the “solvation free energy, 298 K” value was -3.4 kcal/mol.
`OCc1ccccc1O`: for the setting “in O”, the “solvation free energy, 298 K” value was -10.2 kcal/mol.
`C=CC(C)=CCCC(=C)C`: the “solvation free energy, 298 K” value (in O) was -0.55 kcal/mol.
Still for that read-out and setting: as for `CC(C)(C)C(=O)CC(=O)C(C)(C)C`, the figure is -4.43 kcal/mol; as for `COc1c(Cl)cc(Cl)c(OC)c1O`, -6.44 kcal/mol.
`Clc1ccc(Cl)c(Cl)c1Cl`: the “solvation free energy, 298 K” value runs as follows: (in CCCCCCCCC=CCCCCCCCC(=O)OCC(COC(=O)CCCCCCCC=CCCCCCCCC)OC(=O)CCCCCCCC=CCCCCCCCC) -7.82 kcal/mol; (in CCCCCCCCO) -7.69 kcal/mol; (in O) -1.34 kcal/mol.
